Reference: ChEMBL document CHEMBL1201862, “PubChem BioAssay data set” (2004)
Calls of active or inactive are those of the source.

Assays:
Vero [1] = assay: cytotoxicity of synthesized analogs in Vero cells, SAR follow-up, cytotoxicity control for West Nile virus antiviral project, cell-based, set II (AID 2402); type: functional; settings: Chlorocebus sabaeus
Vero [2] = assay: Vero E6 cell cytotoxicity, SAR follow-up, cytotoxicity control for West Nile virus antiviral project, synthesized analogs (AID 2244); type: functional; settings: Chlorocebus sabaeus
Vero [3] = assay: cytotoxicity of synthesized analogs in Vero 76, SAR follow-up, cytotoxicity control for West Nile virus antiviral project, Vero 76 cells (AID 2414); type: functional; settings: Chlorocebus sabaeus
Vero [4] = assay: West Nile virus CPE inhibition, SAR follow-up, cell-based, synthesized analogs (AID 2238); type: functional; settings: Chlorocebus sabaeus
[5] = A Cell Based Assay for the Identification of Probe candidate Compounds with Anti- Venezuelan Equine Encephalitis virus. [Related pubchem assays: 2409, 2419, 1621, 2238, 2405, 2024, 2065, 2402, 2414, 1635, 1650, 2244 ]; type: functional
[6] = target: G-protein coupled receptor 55 (Homo sapiens, UniProt Q9Y2T6); assay: GPR55 agonists via beta-arrestin recruitment, primary screen, imaging, U2OS cells, beta-arrestin-GFP redistribution (AID 1961); type: functional
[7] = cytotoxicity in HPDE-C7 cells, cell-based, fluorescence, HTS (AID 430); type: functional; settings: Homo sapiens
[8] = cytotoxicity in KRAS-transformed pancreatic duct cells, primary screen, cell-based, fluorescence, HTS (AID 431); type: functional; settings: Homo sapiens;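 further: cell line used: HPDE-C7K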
Ephrin type-A receptor 4 = Ephrin type-A receptor 4 (Mus musculus, UniProt Q03137); assay: inhibitors of EphA4 binding to KYL peptide, primary screen, biochemical, colorimetric, mouse EphA4 (AID 689); type: functional
[9] = target: T1, Tyrosine-protein phosphatase non-receptor type 7 (Homo sapiens, UniProt P35236); assay: redox-dependent HePTP inhibition, mechanism study, biochemical, fluorescence (AID 2068); type: functional
T1 sequence (P35236 whole entry): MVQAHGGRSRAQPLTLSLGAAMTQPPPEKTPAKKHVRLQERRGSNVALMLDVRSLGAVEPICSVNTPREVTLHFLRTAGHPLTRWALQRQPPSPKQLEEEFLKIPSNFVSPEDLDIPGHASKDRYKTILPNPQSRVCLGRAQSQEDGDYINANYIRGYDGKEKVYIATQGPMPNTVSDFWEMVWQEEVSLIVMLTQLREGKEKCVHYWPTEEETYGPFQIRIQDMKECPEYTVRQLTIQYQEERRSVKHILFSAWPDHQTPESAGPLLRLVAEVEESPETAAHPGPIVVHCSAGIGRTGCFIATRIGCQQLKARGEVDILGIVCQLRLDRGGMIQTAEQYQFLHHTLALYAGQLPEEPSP

[10] = target: Induced myeloid leukemia cell differentiation protein Mcl-1 (Homo sapiens, UniProt Q07820); type: functional
[11] = target: Polyadenylate-binding protein 1 (Homo sapiens, UniProt P11940); assay: PABP inhibition in translation initiation, SAR follow-up (AID 435018); type: functional
[12] = target: Eukaryotic translation initiation factor 4H (Homo sapiens, UniProt Q15056); assay: eIF4H inhibition in translation initiation, SAR follow-up (AID 435011); type: functional
[13] = target: T2, Dual specificity protein phosphatase 3 (Homo sapiens, UniProt P51452); assay: Dose Response Confirmation of compounds that inhibit VHR1 in Fluorescent Assay. [Related pubchem assays (depositor defined):AID1661, AID1878]; type: functional
[14] = target: T1, Tyrosine-protein phosphatase non-receptor type 7; assay: Dose Response confirmation of compounds that inhibit HePTP. [Related pubchem assays (depositor defined):AID1059, AID1661, AID2085]; type: functional
[15] = target: T3, Type-1 angiotensin II receptor (Homo sapiens, UniProt P30556); assay: AT1 receptor agonists, dose response, selectivity assay for APJ receptor agonist project, cell-based, uHTS hits (AID 488865); type: functional;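 further: beta-arrestin recruitment to AT1 measured by enzyme fragment complementation luminescence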
T3 sequence (P30556 whole entry): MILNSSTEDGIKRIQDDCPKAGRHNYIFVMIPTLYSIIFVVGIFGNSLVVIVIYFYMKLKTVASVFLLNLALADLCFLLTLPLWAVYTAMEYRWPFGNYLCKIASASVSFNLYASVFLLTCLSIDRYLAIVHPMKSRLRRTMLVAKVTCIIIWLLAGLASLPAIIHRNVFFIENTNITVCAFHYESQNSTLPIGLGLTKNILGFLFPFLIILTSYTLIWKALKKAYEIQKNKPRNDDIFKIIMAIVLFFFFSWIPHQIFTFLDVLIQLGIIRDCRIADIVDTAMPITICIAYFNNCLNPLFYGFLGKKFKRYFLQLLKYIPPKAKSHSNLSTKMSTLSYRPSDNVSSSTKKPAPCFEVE

[16] = target: 5-hydroxytryptamine receptor 2A (Mus musculus, UniProt P35363); type: functional, cell-based;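 further: CHO-K1 cells with tagged receptor and beta-arrestin; agonist potency measured as compound-induced activation of the receptor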
Phosphomannomutase 2 = Phosphomannomutase 2 (Homo sapiens, UniProt O15305); assay: Counter screen SAR assay for PMM2 inhibitors via a fluorescence intensity assay. [Related pubchem assays (depositor defined):AID1545, AID1574]
[17] = target: Mitochondrial peptide methionine sulfoxide reductase (Bos taurus, UniProt P54149); assay: Absorbance-based biochemical high throughput dose response assay for activators of Methionine sulfoxide reductase A (MsrA).; type: functional
Hexokinase = target: T4, Hexokinase (Trypanosoma brucei, UniProt Q38C41); assay: Confirmation assay for inhibitors of Trypanosoma brucei hexokinase 1-Analogue-first series. [Related pubchem assays (depositor defined):AID1430, AID1632, AID2516, AID2560, AID2579, AID2600, AID449725, AID492951]; type: functional
T4 sequence (Q38C41 whole entry): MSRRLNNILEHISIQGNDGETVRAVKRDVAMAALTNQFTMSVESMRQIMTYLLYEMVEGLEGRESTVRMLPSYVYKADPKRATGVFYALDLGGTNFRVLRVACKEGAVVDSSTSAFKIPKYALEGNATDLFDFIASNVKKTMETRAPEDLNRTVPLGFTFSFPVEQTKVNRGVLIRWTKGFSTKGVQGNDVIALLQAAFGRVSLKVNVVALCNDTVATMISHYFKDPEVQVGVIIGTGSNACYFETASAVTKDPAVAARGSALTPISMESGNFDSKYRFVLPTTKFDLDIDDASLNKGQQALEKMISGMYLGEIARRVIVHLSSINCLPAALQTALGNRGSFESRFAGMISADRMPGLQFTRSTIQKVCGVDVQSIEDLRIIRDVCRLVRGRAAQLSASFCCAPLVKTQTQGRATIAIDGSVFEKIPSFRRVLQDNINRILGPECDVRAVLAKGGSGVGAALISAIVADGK

[18] = target: Phosphoethanolamine/phosphocholine phosphatase (Homo sapiens, UniProt Q8TCT1); assay: SAR assay for compounds that inhibit PHOSPHO1. [Related pubchem assays (depositor defined):AID1545, AID1565, AID1574]
[19] = target: T5, Mannose-6-phosphate isomerase (Homo sapiens, UniProt P34949); assay: PMI enzyme inhibitors, confirmation, biochemical, fluorescence intensity (AID 1535)
T5 sequence (P34949 whole entry): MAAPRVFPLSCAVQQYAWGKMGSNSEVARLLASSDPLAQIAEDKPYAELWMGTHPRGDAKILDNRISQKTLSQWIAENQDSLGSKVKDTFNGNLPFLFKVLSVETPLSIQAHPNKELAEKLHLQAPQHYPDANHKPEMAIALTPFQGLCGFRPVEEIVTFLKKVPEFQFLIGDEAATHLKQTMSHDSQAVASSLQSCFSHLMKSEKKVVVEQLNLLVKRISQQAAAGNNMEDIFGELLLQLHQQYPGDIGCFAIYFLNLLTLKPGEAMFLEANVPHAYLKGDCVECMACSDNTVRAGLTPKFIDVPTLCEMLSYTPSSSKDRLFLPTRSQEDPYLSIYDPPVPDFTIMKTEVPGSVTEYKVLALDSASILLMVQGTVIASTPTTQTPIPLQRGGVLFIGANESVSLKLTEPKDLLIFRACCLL

[20] = HeLa cell cytotoxicity, dose response, cytotoxicity control for MgcRacGAP inhibitor project (AID 624300); type: functional
[21] = target: T6, Rac GTPase-activating protein 1 (Homo sapiens, UniProt Q9H0H5); assay: MgcRacGAP GTPase-activating activity inhibitors, confirmation, biochemical, ADP Hunter fluorescence, primary and confirmatory (AID 624330); type: functional
T6 sequence (Q9H0H5 whole entry): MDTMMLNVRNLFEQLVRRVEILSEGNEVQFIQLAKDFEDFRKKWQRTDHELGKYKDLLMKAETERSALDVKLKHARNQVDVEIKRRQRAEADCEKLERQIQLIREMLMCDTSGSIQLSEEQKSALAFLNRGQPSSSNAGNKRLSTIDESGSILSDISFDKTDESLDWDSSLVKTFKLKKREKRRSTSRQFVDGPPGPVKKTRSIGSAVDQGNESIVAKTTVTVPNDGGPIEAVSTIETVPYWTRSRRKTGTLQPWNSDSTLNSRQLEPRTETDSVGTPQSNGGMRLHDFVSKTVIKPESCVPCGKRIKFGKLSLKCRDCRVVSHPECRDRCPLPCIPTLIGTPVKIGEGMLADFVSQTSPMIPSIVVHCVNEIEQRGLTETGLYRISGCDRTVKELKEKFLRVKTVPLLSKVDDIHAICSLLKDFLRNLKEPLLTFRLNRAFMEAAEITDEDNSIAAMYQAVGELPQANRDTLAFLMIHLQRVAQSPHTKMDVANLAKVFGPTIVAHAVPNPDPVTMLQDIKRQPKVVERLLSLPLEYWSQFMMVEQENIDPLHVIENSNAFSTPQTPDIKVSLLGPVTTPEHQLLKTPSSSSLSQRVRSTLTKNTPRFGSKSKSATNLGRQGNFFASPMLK

[22] = target: Glucose-6-phosphate 1-dehydrogenase (Homo sapiens, UniProt P11413); assay: human G6PD enzyme inhibitors, dose response, selectivity assay for P. falciparum G6PD inhibitor project, biochemical, fluorescence (AID 504792); type: functional
[23] = target: T1, Tyrosine-protein phosphatase non-receptor type 7; assay: SAR analysis of chemical inhibitors of HePTP using a Fluorescent assay - Set 2. [Related pubchem assays (depositor defined):AID1059, AID1077, AID1661, AID2085, AID521]; type: functional
[24] = target: T2, Dual specificity protein phosphatase 3; assay: SAR VHR1 Fluorescent Assay for In Vitro dose response studies Set 2. [Related pubchem assays (depositor defined):AID1654, AID1661, AID1878]; type: functional

T2 sequence (P51452 whole entry): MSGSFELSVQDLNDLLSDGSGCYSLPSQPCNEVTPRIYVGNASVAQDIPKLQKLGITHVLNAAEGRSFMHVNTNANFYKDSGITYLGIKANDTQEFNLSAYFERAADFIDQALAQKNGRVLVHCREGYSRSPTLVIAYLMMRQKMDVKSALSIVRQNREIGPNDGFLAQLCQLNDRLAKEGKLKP
Sequence of Mitochondrial peptide methionine sulfoxide reductase (P54149 whole entry): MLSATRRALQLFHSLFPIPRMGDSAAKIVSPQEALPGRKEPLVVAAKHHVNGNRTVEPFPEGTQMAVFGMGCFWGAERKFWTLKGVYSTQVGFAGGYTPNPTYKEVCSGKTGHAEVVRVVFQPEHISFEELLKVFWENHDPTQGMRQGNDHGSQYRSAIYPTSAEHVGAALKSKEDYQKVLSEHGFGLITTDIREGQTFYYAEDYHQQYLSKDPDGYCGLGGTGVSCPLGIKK
Sequence of G-protein coupled receptor 55 (Q9Y2T6 whole entry): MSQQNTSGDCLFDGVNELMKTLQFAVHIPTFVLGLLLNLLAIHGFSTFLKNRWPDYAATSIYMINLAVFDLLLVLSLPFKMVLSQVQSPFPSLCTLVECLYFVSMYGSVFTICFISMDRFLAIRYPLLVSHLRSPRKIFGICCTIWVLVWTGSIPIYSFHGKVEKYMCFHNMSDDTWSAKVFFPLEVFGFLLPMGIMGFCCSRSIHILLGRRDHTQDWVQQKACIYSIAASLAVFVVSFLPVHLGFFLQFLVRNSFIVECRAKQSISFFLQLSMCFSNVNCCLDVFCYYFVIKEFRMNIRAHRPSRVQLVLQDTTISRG
Sequence of Ephrin type-A receptor 4 (Q03137 whole entry): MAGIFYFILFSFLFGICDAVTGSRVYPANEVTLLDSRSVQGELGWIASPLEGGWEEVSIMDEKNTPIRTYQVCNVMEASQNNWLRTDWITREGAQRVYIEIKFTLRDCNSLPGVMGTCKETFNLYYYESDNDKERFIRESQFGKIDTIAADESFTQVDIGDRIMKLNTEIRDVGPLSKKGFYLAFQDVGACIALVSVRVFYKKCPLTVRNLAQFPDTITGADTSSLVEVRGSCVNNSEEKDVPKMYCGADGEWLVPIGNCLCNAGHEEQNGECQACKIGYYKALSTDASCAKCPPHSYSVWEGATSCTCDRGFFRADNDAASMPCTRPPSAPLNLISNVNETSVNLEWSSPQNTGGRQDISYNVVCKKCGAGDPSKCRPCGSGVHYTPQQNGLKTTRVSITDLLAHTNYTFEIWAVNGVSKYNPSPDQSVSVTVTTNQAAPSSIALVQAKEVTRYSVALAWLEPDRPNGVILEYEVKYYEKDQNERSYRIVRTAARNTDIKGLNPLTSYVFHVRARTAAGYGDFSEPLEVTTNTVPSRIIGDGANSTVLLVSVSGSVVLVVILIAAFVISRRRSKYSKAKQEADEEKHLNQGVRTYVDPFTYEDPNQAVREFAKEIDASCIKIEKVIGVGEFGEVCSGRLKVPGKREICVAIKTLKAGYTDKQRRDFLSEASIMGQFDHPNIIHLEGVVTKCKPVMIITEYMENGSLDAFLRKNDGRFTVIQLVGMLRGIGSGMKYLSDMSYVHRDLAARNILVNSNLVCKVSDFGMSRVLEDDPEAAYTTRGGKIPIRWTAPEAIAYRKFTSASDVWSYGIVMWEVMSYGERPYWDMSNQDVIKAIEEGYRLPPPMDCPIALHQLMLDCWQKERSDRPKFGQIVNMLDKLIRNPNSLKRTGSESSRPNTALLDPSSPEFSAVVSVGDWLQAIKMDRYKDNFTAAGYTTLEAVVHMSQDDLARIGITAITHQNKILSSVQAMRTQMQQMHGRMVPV
Sequence of 5-hydroxytryptamine receptor 2A (P35363 whole entry): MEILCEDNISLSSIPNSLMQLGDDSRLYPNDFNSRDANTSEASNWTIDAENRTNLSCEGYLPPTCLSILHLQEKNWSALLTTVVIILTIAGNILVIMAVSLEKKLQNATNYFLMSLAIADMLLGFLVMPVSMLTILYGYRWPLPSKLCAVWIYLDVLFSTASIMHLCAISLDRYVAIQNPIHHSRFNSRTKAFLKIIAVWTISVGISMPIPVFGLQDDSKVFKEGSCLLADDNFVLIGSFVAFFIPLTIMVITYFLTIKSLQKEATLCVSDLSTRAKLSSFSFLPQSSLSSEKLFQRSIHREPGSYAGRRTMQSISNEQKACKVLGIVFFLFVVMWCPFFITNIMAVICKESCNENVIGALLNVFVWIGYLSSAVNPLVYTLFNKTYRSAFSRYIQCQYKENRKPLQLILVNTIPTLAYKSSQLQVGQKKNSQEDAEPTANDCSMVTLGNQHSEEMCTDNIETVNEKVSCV
Sequence of Polyadenylate-binding protein 1 (P11940 whole entry): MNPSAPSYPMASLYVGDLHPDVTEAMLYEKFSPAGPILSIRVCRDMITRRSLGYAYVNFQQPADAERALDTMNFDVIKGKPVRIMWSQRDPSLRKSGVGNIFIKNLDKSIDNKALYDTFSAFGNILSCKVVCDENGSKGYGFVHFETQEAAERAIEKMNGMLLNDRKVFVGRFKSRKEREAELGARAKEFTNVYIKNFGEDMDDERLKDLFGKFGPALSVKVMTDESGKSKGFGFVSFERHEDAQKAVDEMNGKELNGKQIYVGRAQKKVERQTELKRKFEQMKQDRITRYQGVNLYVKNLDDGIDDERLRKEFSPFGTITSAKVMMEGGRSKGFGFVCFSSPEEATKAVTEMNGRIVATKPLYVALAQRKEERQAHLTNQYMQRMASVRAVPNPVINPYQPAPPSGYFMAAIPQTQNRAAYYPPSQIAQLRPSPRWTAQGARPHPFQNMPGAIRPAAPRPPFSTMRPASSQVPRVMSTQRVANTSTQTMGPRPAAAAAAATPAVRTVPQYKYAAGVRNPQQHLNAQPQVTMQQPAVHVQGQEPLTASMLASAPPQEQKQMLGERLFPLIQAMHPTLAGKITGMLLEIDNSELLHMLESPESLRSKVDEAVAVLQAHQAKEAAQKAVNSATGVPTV
Sequence of Phosphoethanolamine/phosphocholine phosphatase (Q8TCT1 whole entry): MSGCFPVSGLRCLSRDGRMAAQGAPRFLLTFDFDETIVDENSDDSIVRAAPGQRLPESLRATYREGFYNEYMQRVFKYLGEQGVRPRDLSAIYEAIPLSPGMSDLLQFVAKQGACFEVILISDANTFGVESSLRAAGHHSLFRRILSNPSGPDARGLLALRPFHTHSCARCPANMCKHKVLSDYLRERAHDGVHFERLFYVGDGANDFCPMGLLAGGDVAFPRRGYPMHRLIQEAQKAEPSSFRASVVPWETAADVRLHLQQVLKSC
Sequence of Glucose-6-phosphate 1-dehydrogenase (P11413 whole entry): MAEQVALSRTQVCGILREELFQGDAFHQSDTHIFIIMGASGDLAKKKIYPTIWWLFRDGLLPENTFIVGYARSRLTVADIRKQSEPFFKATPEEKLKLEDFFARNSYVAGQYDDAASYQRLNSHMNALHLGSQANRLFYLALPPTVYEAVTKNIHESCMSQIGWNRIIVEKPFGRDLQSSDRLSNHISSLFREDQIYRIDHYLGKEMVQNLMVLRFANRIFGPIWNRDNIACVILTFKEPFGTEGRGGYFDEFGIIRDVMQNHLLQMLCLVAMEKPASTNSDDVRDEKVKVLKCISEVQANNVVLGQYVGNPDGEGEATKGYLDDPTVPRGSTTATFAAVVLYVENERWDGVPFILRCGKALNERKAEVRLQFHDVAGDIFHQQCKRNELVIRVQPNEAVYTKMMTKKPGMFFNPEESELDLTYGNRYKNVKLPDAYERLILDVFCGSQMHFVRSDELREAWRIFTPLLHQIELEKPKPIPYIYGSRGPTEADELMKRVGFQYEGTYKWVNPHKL
Sequence of Induced myeloid leukemia cell differentiation protein Mcl-1 (Q07820 whole entry): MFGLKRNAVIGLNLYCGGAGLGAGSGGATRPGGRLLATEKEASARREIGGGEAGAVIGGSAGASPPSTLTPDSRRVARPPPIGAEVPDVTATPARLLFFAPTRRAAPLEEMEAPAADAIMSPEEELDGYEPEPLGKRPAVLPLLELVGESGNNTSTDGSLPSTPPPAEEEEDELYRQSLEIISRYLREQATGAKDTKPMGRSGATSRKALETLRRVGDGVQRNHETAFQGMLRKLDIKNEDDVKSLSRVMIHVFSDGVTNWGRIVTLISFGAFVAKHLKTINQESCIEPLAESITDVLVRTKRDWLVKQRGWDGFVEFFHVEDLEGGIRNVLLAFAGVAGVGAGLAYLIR
Sequence of Phosphomannomutase 2 (O15305 whole entry): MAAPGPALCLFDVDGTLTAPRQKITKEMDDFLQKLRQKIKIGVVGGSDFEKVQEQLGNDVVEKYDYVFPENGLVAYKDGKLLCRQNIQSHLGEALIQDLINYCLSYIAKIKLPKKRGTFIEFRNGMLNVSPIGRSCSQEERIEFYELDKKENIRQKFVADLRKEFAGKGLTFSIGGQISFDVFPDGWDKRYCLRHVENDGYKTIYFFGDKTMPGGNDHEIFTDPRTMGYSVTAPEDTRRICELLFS

SMILES: O=C(CSc1nc2ccccc2c(=O)n1-c1ccc(Cl)cc1)Nc1ccc2c(c1)CCC2
- CC50 (Vero [1]): > 100 µM (active)
- CC50 (Vero [2]): > 40 µM (active)
- CC50 (Vero [3]): > 66.6 µM (active)
- IC50 (Vero [4]): > 40 µM (active)
- IC50 [5]: 7.56 µM (active)

SMILES: CC/C(Nc1ccc(OC)cc1OC)=C1/C(=O)NC(=O)N(C2CCCCC2)C1=O
- EC50 [6]: 10.9 µM (inactive)
- EC50 [7]: 12.8 µM (active)
- EC50 [8]: 16.3 µM (active)

SMILES: O=S(=O)(c1ccc2nc(-c3ccco3)c(-c3ccco3)nc2c1)N1CCOCC1
- IC50 (Ephrin type-A receptor 4): 21.5 µM (active)
- IC50 [9]: 7.46 µM (active)
- IC50 [10]: 5.65 µM (active)

SMILES: COc1ccc([N+](=O)[O-])cc1NC(=O)C(C)OC(=O)c1ccccc1C(=O)c1ccc(Cl)cc1 (configuration not stated)
- IC50 [11]: > 100 µM (inactive)
- IC50 [12]: > 100 µM (inactive)

SMILES: Cn1c2ccccc2c(=O)c2ccc(C#Cc3ccccn3)cc21
- IC50 [13]: 7.2 µM (active)
- IC50 [14]: 6.64 µM (active)

SMILES: COC(=O)C1=C(Cn2cnc3ccccc32)NC(=O)NC1c1cc(C)ccc1C (configuration not stated)
- EC50 [15]: > 100 µM (inactive)
- EC50 [16]: 8.44 µM (active)

SMILES: O=c1c2ccccc2sn1-c1cccc(Cl)c1
- IC50 (Phosphomannomutase 2): 59.6 µM (active)
- EC50 [17]: > 104 µM (inactive)
- IC50 (Hexokinase): 1.9 µM (active)
- IC50 [18]: 5.21 µM (inactive)
- IC50 [19]: 3.43 µM (active)
- CC50 [20]: 100 µM (active)
- IC50 [21]: 33.9 µM (active)
- IC50 [22]: 13 µM (active)

SMILES: O=S(=O)(Nc1ncccn1)c1ccc(NC(=S)N2CCN(Cc3ccc4c(c3)OCO4)CC2)cc1
- IC50 [23]: > 100 µM (inactive)
- IC50 [24]: > 100 µM (inactive)
